Source: patent US6716987B1, “Derivatives of benzofuran or benzodioxazole compounds” (Kyowa Hakko Kogyo Co., Ltd., priority 1995, dated 2004)

test system: cAMP-specific phosphodiesterase (PDE IV); assay: Inhibition of the PDE IV enzyme derived from a dog trachea; format: biochemical; conditions: test compound 10^−6 M; PDE IV from dog tracheal smooth muscle; substrate cAMP 1 μM
Procedure: cAMP-specific phosphodiesterase (PDE IV) was purified from a dog tracheal smooth muscle according to the method of Torphy et al. [Molecular Pharmacol., 37, 206-214 (1990)]. The PDE activity was measured by the following two steps according to the method of Kincaid and Manganiello et al. [Method in Enzymology (J. D. Corbin and R. A. Jonson, Eds.), 199, 457-470 (1988)]. Using [^3]cAMP (at a final concentration of 1 μM) as a substrate, the reaction was carried out in a standard mixture containing N,N-bis(2-hydroxyethyl)-2-aminoethanesulfonic acid (50 mM, pH=7.2), MgCl2 (1 mM), and soybean trypsin inhibitor (0.1 mg/ml). The reaction was initiated by adding the enzyme, followed by incubation at 30° C. for 10 to 30 minutes. After stopping the reaction with hydrochloric acid, the generated […] was completely converted to adenosine by 5′-nucleotidase.
The resultant was subjected to chromatography on DEAE-Sephadex A-25, and radio activity of the eluted [^3H] adenosine was counted using a scintillation counter. Each of the test drugs was dissolved in DMSO (final concentration 1.7%) and then added to the mixture.

Compared with COc1ccc(C(C#N)Cc2ccncc2)c2c1OC1(CCCC1)C2.Cl (racemic) [Compound 64, (±)-4-[1-Cyano-2-(4-pyridyl)ethyl]-7-methoxy-spiro[2,3-dihydrobenzofuran-2,1′-cyclopentane].hydrochloride], COc1ccc(C(C)(C#N)Cc2ccncc2)c2c1OC1(CCCC1)C2.Cl (racemic) [Compound 65, (±)-4-[1-Cyano-1-methyl-2-(4-pyridyl)ethyl]-7-methoxy-spiro[2,3-dihydrobenzofuran-2,1′-cyclopentane].hydrochloride] is lower in “Enzyme Inhibitory Activity (%, 10^−6 M)” value: 78% for the first, 74% for the second.

First: COc1ccc(C(=O)Nc2c(Cl)cncc2Cl)c2cc(C#N)oc12 [Compound 34, 2-Cyano-4-(3,5-dichloropyridin-4-ylaminocarbonyl)-7-methoxybenzofuran]
Second: COc1ccc(C(=O)Nc2c(Cl)cncc2Cl)c2c1OCC2CC(=O)Nc1ncccn1 (racemic) [Compound 20, (±)-4-[(3,5-Dichloro-4-pyridyl)aminocarbonyl]-7-methoxy-3-[(2-pyrimidyl)aminocarbonyl]methyl-2,3-dihydro-benzofuran]
The “Enzyme Inhibitory Activity (%, 10^−6 M)” value of the first is higher: 100% for the first, 80% for the second.

Compared with COc1ccc(C(=O)Nc2ccncc2)c2cc(-c3ccccn3)oc12.Cl.Cl [Compound 41, 7-Methoxy-2-(2-pyridyl)-4-[(4-pyridylamino)carbonyl]-benzofuran.2 hydrochloride], COc1ccc(C(=O)Cc2ccncc2)c2cc(-c3ccccn3)oc12.Cl.Cl [Compound 117, 7-Methoxy-4-[1-oxo-2-(4-pyridyl)ethyl]-2-(2-pyridyl)-benzofuran.2 hydrochloride] is higher in “Enzyme Inhibitory Activity (%, 10^−6 M)” value: 58% for the first, 87% for the second.

Compared with CCCCc1cc2c(C(=O)Cc3ccncc3)ccc(OC)c2o1.Cl [Compound 109, 2-Butyl-7-methoxy-4-[1-oxo-2-(4-pyridyl)ethyl]-benzofuran.hydrochloride], COc1ccc(C(=O)Cc2ccncc2)c2cc(-c3ccccc3)oc12.Cl [Compound 111, 7-Methoxy-4-[1-oxo-2-(4-pyridyl)ethyl]-2-phenyl-benzofuran.hydrochloride] is higher in “Enzyme Inhibitory Activity (%, 10^−6 M)” value: 68% for the first, 69% for the second.

Going from COc1ccc(/C=C/c2ccncc2)c2c1OCC2C (racemic) [Compound 79, (E)-(±)-7-Methoxy-3-methyl-4-[2-(4-pyridyl)ethenyl]-2,3-dihydrobenzofuran] to COc1ccc(/C=C/c2ccncc2)c2c1OC1(CCCCC1)C2.Cl [Compound 77, (E)-7-Methoxy-4-[2-(4-pyridyl)ethenyl]-spiro[2,3-dihydrobenzofuran-2,1′-cyclohexane].hydrochloride], the “Enzyme Inhibitory Activity (%, 10^−6 M)” value rises from 45% to 87%.

Going from COc1ccc(C(=O)Nc2c(Cl)cncc2Cl)c2c1OCC2CC(=O)NCc1ccncc1 (racemic) [Compound 26, (±)-4-[(3,5-Dichloro-4-pyridyl)aminocarbonyl]-7-methoxy-3-[(4-pyridylmethyl)aminocarbonyl]methyl-2,3-dihydrobenzofuran] to COc1ccc(C(=O)Nc2c(Cl)cncc2Cl)c2c1OCC2CC(=O)Nc1cccnc1 (racemic) [Compound 19, (±)-4-[(3,5-Dichloro-4-pyridyl)aminocarbonyl]-7-methoxy-3-[(3-pyridyl)aminocarbonyl]methyl-2,3-dihydro-benzofuran], the “Enzyme Inhibitory Activity (%, 10^−6 M)” value rises from 79% to 87%.

Compared with CCC1(CC)Cc2c(C(=O)Cc3ccncc3)ccc(OC)c2O1.Cl [Compound 98, 2,2-Diethyl-7-methoxy-4-[1-oxo-2-(4-pyridyl)ethyl]-2,3-dihydrobenzofuran.hydrochloride], CCC1(CC)Cc2c(CCc3ccncc3)ccc(OC)c2O1.Cl [Compound 51, 2,2-Diethyl-7-methoxy-4-[2-(4-pyridyl)ethyl]-2,3-dihydrobenzofuran.hydrochloride] is lower in “Enzyme Inhibitory Activity (%, 10^−6 M)” value: 85% for the first, 67% for the second.

Compared with COc1ccc(/C=C/c2ccncc2)c2cc(-c3ccccc3)oc12.Cl [Compound 81, (E)-7-Methoxy-2-phenyl-4-[2-(4-pyridyl)ethenyl]-benzofuran.hydrochloride], COc1ccc(/C=C/c2ccncc2)c2cc(-c3ccccn3)oc12.Cl.Cl [Compound 85, (E)-7-Methoxy-2-(2-pyridyl)-4-[2-(4-pyridyl)ethenyl]-benzofuran.2 hydrochloride] is higher in “Enzyme Inhibitory Activity (%, 10^−6 M)” value: 56% for the first, 69% for the second.

Compared with CCOC(=O)CC1COc2c(OC)ccc(C(=O)Nc3ccncc3)c21 (racemic) [Compound 6, (±)-3-Ethoxycarbonylmethyl-7-methoxy-4-pyridylaminocarbonyl-2,3-dihydrobenzofuran], COc1ccc(C(=O)Nc2ccncc2)c2c1OC1(CCCC1)CC2.CS(=O)(=O)O [Compound 124, 8-Methoxy-5-(4-pyridylaminocarbonyl)-spiro[3,4-dihydrobenzopyran-2,1′-cyclopentane].methanesulfonate] is lower in “Enzyme Inhibitory Activity (%, 10^−6 M)” value: 66% for the first, 57% for the second.

First: COc1ccc(C(=O)Nc2c(Cl)cncc2Cl)c2c1OCC2CC(=O)N1CCc2ccccc2C1 (racemic) [Compound 22, (±)-4-[(3,5-Dichloro-4-pyridyl)aminocarbonyl]-7-methoxy-3-[(1,2,3,4-tetrahydroisoquinolinyl)carbonyl]-methyl-2,3-dihydrobenzofuran]
Second: COc1ccc(C(=O)Nc2c(Cl)cncc2Cl)c2c1OCC2CC(=O)N1CCN(C)CC1.Cl (racemic) [Compound 17, (±)-4-[(3,5-Dichloro-4-pyridyl)aminocarbonyl]-7-methoxy-3-[(4-methylpiperazin-1-yl)carbonylmethyl]-2,3-dihydro-benzofuran.hydrochloride]
The “Enzyme Inhibitory Activity (%, 10^−6 M)” value of the first is higher: 85% for the first, 63% for the second.

Compared with COc1ccc(C(=O)Cc2ccncc2)c2c1OC1(CCCCC1)CC2.Cl [Compound 128, 8-Methoxy-5-[1-oxo-2-(4-pyridyl)ethyl]-spiro[3,4-dihydrobenzopyran-2,1′-cyclohexane].hydrochloride], COc1ccc(CCc2ccncc2)c2c1OC1(CCCCC1)C2.Cl [Compound 55, 7-Methoxy-4-[2-(4-pyridyl)ethyl]-spiro[2,3-dihydro-benzofuran-2,1′-cyclohexane].hydrochloride] is higher in “Enzyme Inhibitory Activity (%, 10^−6 M)” value: 62% for the first, 86% for the second.

Compared with COc1ccc(CCc2ccncc2)c2c1OC1(CCCC1)C2.Cl [Compound 53, 7-Methoxy-4-[2-(4-pyridyl)ethyl]-spiro[2,3-dihydro-benzofuran-2,1′-cyclopentane].hydrochloride], COc1ccc(CCc2ccncc2)c2c1OC1(CCCC1)O2.Cl [Compound 136, 4-Methoxy-7-[2-(4-pyridyl)ethyl]-spiro[1,3-benzodioxole-2,1′-cyclopentane].hydrochloride] is lower in “Enzyme Inhibitory Activity (%, 10^−6 M)” value: 84% for the first, 75% for the second.

Compared with COc1ccc(C(Cc2ccncc2)c2ccccc2)c2cc(-c3ccncc3)oc12.Cl (racemic) [Compound 66, (±)-7-Methoxy-4-[1-phenyl-2-(4-pyridyl)ethyl]-2-(4-pyridyl)benzofuran.hydrochloride], COc1ccc(C(=O)Nc2ccncc2)c2cc(-c3ccncc3)oc12.Cl.Cl [Compound 39, 7-Methoxy-2-(4-pyridyl)-4-(4-pyridylaminocarbonyl)-benzofuran.2 hydrochloride] is higher in “Enzyme Inhibitory Activity (%, 10^−6 M)” value: 49% for the first, 77% for the second.

Going from COC(=O)c1cccc(NC(=O)/C=C/c2ccc(OC)c3c2CC2(CCCC2)O3)c1 [Compound 93, (E)-7-Methoxy-4-{2-[3-(methoxycarbony)phenyl-1-ylaminocarbonyl]ethenyl}-spiro[2,3-dihydrobenzofuran-2,1′-cyclopentane]] to COc1ccc(C(C)=Cc2ccncc2)c2c1OC1(CCCC1)C2 [Compound 75, 7-Methoxy-4-[1-methyl-2-(4-pyridyl)ethenyl]-spiro[2,3-dihydrobenzofuran-2,1′-cyclopentane]], the “Enzyme Inhibitory Activity (%, 10^−6 M)” value rises from 23% to 72%.

Going from COc1ccc(C(=O)Cc2ccncc2)c2c(-c3ccccc3)coc12.Cl [Compound 118, 7-Methoxy-4-[1-oxo-2-(4-pyridyl)ethyl]-3-phenyl-benzofuran.hydrochloride] to COc1ccc(C(=O)Cc2ccncc2)c2c1O[C@@H]1CCCC[C@H]21.Cl (racemic) [Compound 105, (±)-cis-6-Methoxy-9-[1-oxo-2-(4-pyridyl)ethyl]-1,2,3,4,4a,9b-hexahydrodibenzofuran.hydrochloride], the “Enzyme Inhibitory Activity (%, 10^−6 M)” value falls from 80% to 66%.

First: COc1ccc(CCc2c(Cl)cncc2Cl)c2c1OC1(CCCCC1)C2.CS(=O)(=O)O [Compound 54, 4-[2-(3,5-Dichloro-4-pyridyl)ethyl]-7-methoxy-spiro[2,3-dihydrobenzofuran-2,1′-cyclohexane].methanesulfonate]
Second: COc1ccc(C(=Cc2ccncc2)c2ccccc2)c2c1OC1(CCCC1)O2 [Compound 139, 4-Methoxy-7-[1-phenyl-2-(4-pyridyl)ethenyl]-spiro[1,3-benzodioxole-2,1′-cyclopentane]]
The “Enzyme Inhibitory Activity (%, 10^−6 M)” value of the first is higher: 81% for the first, 54% for the second.

COc1ccc(C(=Cc2ccncc2)c2ccccc2)c2c1OC(C)(C)C2 [Compound 70, 7-Methoxy-2,2-dimethyl-4-[1-phenyl-2-(4-pyridyl)-ethenyl]-2,3-dihydrobenzofuran] was tested, and the “Enzyme Inhibitory Activity (%, 10^−6 M)” value was 68%.
